Assay results published in article PMC10058641 (Molecular cell, 2022).

T1: COQ7 (His6-GB1-Nd38COQ7) (Homo sapiens, UniProt Q99807)
T1 sequence (Q99807 39-217): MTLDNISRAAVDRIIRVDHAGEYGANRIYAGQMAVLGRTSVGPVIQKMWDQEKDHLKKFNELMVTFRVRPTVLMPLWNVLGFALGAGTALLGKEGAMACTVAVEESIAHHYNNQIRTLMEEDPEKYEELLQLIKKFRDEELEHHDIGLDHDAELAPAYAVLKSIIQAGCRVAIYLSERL

T2: His6-Nd79COQ9 (human COQ9 residues 79-318 with an N-terminal His tag) (human, UniProt O75208 79-318)
T2 sequence (looked up): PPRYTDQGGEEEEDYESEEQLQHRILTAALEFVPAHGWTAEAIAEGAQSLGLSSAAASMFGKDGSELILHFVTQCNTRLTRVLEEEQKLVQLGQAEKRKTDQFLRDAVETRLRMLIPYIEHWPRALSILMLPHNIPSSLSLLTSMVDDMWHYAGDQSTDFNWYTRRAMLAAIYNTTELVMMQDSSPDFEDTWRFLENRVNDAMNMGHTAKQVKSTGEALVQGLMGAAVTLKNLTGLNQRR

B1: GB1-Nd38COQ7 (human COQ7 residues 39-217 with N-terminal GB1 tag) (enzyme, UniProt Q99807 39-217, looked up)
chain: T1 sequence (Q99807 39-217)

Assays:
COQ7 (His6-GB1-Nd38COQ7) = target: T1, COQ7 (His6-GB1-Nd38COQ7); assay: NADH fluorescence loss; format: biochemical; conditions: 250 uM DMQ0, 5 uM protein, 20 mM HEPES pH 7.6, 200 mM NaCl, 30 °C
[1] = target: T2, His6-Nd79COQ9 (human COQ9 residues …); assay: SEC + native gel or EMSA

Molecule	NADH oxidation (COQ7 (His6-GB1-Nd38COQ7))	stoichiometry N [1]
NC(=O)C1=CN([C@@H]2O[C@H](COP(=O)(O)OP(=O)(O)OC[C@H]3O[C@@H](n4cnc5c(N)ncnc54)[C@H](O)[C@@H]3O)[C@@H](O)[C@H]2O)C=CC1 [NADH]	wild type COQ7 slowly oxidized NADH and transferred electrons to a quinone acceptor	
B1		1
